Data published in patent publication US20140094482A1, “BENZAZOCINE-RING COMPOUND INHIBITION OF TAU HYPERPHOSPHORYLATION” (priority 2012, published 2014).
Several values for one entry are separate records, joined by “and”; a condition that tells them apart may be missing. Equal values may be shown once. Entries after “also recorded” stand apart in the source; their conditions may differ. Read-outs that look alike come from different tables or passages of the source.

Key:
[1] = target: FLNA pentapeptide of SEQ ID NO: 1 (Bn-VAKGL) (Homo sapiens, UniProt P21333); assay: FITC-NLX-based FLNA screening assay (inhibition of FITC-naloxone binding to Bn-VAKGL); details: for inhibition at 0.01 µM: read-out: Percent inhibition of FITC-NLX binding, 0.01 μM compound; for inhibition at 0.1 µM: read-out: Percent inhibition of FITC-NLX binding, 0.1 μM compound
kappa-opioid receptor = kappa-opioid receptor (Homo sapiens, UniProt P41145); details: cited from earlier work
Sequence of kappa-opioid receptor (P41145 whole entry): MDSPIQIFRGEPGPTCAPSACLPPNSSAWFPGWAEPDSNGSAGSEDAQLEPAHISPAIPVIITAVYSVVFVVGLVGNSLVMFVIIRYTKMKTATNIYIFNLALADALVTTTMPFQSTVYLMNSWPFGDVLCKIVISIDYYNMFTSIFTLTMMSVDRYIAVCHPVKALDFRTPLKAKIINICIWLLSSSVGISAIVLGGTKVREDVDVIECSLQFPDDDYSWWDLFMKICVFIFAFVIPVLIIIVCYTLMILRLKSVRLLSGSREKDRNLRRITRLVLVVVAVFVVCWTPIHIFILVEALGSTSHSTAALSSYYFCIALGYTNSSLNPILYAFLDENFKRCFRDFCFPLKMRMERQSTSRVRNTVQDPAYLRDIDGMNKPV

α7nAChR-FLNA complex = target: T1, α7nAChR-FLNA complex (Rattus norvegicus, UniProt A0A8I5ZV49); assay: Aβ42-induced α7nAChR-FLNA association in frontal cortical synaptosomes (anti-FLNA immunoprecipitation, Western blot); assay type: biochemical; details: compound simultaneous with 100 nM Aβ42; vs Aβ42 alone
T1 construct: from tissue; host or cells: rat frontal cortex synaptosomes
Experimental: FIG. 2, in two panels as FIG. 2A and FIG. 2B, illustrates high-affinity FLNA-binding compounds reduce α7nAChR-FLNA association as shown by Western blots. Frontal cortical synaptosomes from 2-month-old rats (n=4) were treated with 0.1 or 1 nM concentrations of potential FLNA-binding compounds [A0040, A0068, B0055, C0137M, C0138M and (+)-naloxone (+NLX)] either simultaneously (Sim) with or 10 minutes prior (10′ pr) to Aβ42 and were analyzed for their α7nAChR-FLNA complex contents. The α7nAChR-FLNA complexes in the solubilized synaptosomes were immunoprecipitated with immobilized anti-FLNA and the α7nAChR and FLNA levels in the anti-FLNA immunoprecipitates determined by Western blotting FIG. 2A and quantified by densitometry (FIG. 2B). n=3. Data are means±SEM. […] vs. Aβ42 alone. Data for 0.1 nM simultaneous admixture are shown in diagonal hatching; data from 1 nM simultaneous admixture are shown in cross-hatching; data from 0.1 nM 10 minutes prior to Aβ42 are shown in horizontal hatching; and data from 1 nM admixture 10 minutes prior Aβ42 are shown with vertical hatching. The letter designation “M” that accompanies many of the “C-series” compounds is omitted from FIG. 2, the remaining figures and most discussions of the figures and compounds hereinafter for ease in expression. […]

ERK2 = assay: Aβ42-induced ERK2 activation (pERK2) in synaptosomes; assay type: biochemical, rat; details: 0.1 and 1 nM, simultaneous treatment
Experimental: FIG. 3, in two panels as FIG. 3A and FIG. 3B, illustrates that FLNA-binding compounds reduce Aβ-induced α7nAChR-mediated ERK2 signaling. In the same treated synaptosomes used in FIG. 2, levels of phosphorylated (activated) ERK2 (pERK2) were measured in immunoprecipitates of ERK2. Aβ42 strongly activated extracellular signal-regulated kinase 2 [ERK2; also known as mitogen-activated protein kinase 1 (MAPK1)], and all compounds studied reduced this activation with 10-minutes of pretreatment. […] Immunoprecipitates were determined by Western blotting (FIG. 3A) and quantified by densitometry (FIG. 3B). n=3. Data are means±SEM. […] vs. Aβ42 alone. Hatching is as in FIG. 2.
(§1) Synaptosomes were exposed to 100 nM Aβ42 for 30 minutes, and with […] compounds added either simultaneously or 10 minutes earlier. Controls were a vehicle (no Aβ42) and an Aβ42 alone condition.
To assess Aβ42 signaling via α7nAChR after compound administration, levels of phosphorylated ERK2 were measured in the same synaptosome preparations treated with Aβ42 and the above compounds using Western blots (FIG. 3A). Phosphorylation of ERK2 indicates its activation, which leads to tau hyperphosphorylation. Compared to the control condition, Aβ42 strongly activates ERK2. This activation is suppressed by all six compounds at 0.1 and 1 nM with 10 minute pretreatment, and also by Compound B0055 and (+)NLX with simultaneous treatment (FIG. 3B).

delta-opioid receptor = delta-opioid receptor (Homo sapiens, UniProt P41143); details: cited from earlier work
Sequence of delta-opioid receptor (P41143 whole entry): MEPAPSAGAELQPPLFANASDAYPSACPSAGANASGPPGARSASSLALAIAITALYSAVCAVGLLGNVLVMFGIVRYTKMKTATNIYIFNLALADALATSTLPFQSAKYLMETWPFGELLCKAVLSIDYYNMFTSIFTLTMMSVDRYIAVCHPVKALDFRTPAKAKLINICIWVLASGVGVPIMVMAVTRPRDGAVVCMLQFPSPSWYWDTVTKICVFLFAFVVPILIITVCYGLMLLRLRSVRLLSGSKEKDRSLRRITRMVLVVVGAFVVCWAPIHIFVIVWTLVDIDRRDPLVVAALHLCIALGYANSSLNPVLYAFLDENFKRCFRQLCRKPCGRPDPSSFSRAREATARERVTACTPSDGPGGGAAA

FLNA [2] = target: T2, FLNA (Homo sapiens, UniProt P21333); assay: Inhibition of FITC-NLX binding to FLNA in membranes of A7 cells; details: for IC50: FITC-NLX in place of [3H]NLX
T2 construct: rather than the full protein from a cell membrane preparation; host or cells: A7 cells (membranes)
T2 sequence (P21333 whole entry): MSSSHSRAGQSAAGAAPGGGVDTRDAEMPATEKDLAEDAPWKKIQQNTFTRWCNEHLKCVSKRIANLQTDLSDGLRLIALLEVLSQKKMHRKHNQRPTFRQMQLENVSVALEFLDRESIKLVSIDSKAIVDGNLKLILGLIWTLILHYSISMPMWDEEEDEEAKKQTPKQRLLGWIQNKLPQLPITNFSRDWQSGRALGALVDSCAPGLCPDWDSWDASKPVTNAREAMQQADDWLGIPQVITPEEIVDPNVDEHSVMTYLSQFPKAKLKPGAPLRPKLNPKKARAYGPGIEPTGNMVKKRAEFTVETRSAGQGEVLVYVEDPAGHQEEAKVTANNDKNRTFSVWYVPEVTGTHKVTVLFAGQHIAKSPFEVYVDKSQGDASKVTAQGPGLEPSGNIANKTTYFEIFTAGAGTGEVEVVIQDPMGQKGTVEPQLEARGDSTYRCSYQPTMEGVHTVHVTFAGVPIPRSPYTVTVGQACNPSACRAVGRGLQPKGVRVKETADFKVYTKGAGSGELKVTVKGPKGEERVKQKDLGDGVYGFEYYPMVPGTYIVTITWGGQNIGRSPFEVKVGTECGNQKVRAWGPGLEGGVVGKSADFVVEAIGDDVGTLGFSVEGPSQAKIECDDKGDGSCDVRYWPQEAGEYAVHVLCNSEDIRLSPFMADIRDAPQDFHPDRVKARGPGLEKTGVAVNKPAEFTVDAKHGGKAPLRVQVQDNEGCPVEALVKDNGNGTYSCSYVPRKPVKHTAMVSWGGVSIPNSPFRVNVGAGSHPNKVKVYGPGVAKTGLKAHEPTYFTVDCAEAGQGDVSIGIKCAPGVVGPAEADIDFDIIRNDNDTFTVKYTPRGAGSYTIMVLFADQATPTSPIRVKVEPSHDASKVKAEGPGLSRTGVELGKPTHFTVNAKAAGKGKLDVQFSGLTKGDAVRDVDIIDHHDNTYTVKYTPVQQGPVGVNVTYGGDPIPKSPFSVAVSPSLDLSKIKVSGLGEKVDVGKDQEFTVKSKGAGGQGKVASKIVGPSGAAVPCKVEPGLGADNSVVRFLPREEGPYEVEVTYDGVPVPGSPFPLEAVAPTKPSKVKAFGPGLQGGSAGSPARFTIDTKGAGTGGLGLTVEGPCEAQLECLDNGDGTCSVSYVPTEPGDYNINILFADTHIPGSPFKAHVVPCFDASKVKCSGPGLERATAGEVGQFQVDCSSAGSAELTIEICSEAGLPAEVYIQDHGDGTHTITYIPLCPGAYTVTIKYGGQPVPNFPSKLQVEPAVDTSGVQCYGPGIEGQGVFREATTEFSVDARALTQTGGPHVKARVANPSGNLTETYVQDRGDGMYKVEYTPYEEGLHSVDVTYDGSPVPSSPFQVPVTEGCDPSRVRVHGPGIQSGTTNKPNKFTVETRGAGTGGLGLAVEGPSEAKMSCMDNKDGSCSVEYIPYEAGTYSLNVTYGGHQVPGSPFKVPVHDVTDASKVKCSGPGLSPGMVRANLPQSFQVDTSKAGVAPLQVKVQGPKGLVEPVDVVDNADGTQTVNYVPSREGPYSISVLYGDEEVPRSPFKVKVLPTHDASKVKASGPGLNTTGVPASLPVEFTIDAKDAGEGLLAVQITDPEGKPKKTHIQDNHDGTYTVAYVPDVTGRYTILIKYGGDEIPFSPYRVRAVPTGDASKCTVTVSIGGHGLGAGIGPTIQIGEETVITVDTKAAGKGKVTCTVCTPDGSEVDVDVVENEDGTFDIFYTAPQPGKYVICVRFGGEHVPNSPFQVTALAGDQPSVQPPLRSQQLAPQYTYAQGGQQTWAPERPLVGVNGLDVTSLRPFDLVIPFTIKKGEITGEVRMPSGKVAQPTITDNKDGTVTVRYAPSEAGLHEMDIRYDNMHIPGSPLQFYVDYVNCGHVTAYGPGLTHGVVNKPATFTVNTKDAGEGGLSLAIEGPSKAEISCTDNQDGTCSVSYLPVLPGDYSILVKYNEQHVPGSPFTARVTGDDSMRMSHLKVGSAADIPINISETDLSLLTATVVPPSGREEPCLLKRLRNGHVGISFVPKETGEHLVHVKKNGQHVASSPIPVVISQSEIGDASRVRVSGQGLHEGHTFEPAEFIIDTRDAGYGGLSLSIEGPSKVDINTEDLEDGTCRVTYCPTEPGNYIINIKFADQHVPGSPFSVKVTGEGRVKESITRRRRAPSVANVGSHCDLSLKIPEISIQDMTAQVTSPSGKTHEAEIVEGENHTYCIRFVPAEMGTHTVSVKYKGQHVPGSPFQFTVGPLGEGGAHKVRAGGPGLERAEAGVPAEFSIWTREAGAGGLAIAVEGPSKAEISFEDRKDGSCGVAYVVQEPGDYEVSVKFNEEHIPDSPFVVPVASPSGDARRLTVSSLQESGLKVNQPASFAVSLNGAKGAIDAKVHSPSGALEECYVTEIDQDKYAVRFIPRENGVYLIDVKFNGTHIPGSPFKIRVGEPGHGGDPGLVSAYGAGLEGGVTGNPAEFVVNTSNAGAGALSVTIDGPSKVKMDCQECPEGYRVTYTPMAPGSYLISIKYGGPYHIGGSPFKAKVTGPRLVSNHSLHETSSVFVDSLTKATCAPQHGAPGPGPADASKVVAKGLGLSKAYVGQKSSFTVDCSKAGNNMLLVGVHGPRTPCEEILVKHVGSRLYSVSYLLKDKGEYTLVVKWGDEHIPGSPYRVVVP
Text: 3(2):e1554 (2008), FIG. 3. FIG. 1B is a similar plot obtained from the use of FITC-labeled NLX (FITC-NLX) in place of the radio-labeled material.

FLNA [3] = target: T2, FLNA; details: [3H]NLX binding, A7 cell membranes, Wang et al. 2008/2009, cited from earlier work
FLNA [4] = target: T2, FLNA; assay: Inhibition of [3H]NLX binding to membranes from FLNA-expressing A7 cells; details: for IC50: [3H]NLX binding, A7 cell membranes, Example 3, six studies, two-site fit
tau protein = assay: Aβ42-induced tau phosphorylation at S202, T231 and T181 in synaptosomes; assay type: biochemical, rat
Experimental: FIG. 4, in four panels as FIG. 4A, FIG. 4B, FIG. 4C and FIG. 4D, illustrate that FLNA-binding compounds reduce tau phosphorylation at all three hyperphosphorylation sites. […] The three phosphoepitopes of tau were detected in immunoprecipitates using specific antibodies in Western blots. […] Immunoprecipitates were determined by Western blotting (FIG. 4A) and quantified by densitometry (FIG. 4B, FIG. 4C and FIG. 4D). Data are means±SEM. […] vs. Aβ42 alone. Hatching is as in FIG. 2.
as §1
Next assessed was whether the FLNA-binding compounds also decrease hyperphosphorylation of tau, a downstream effect of Aβ42 binding to α7nAChR and ERK2 activation. The three primary phosphorylation sites on tau protein were examined for their phosphorylation levels compared to total tau protein content using Western blots (FIG. 4A). Tau, phosphorylated at these three sites, is a constituent of NFTs.

[5] = read-out: Percent Inhibition, 1 μM compound (n = 5)
[6] = read-out: Percent inhibition of FITC-NLX binding, 1 μM compound, 10 nM FITC-NLX
[7] = read-out: inhibition of binding of FITC-labeled NLX, 1 μM compound, 10 nM FITC-NLX, n=5, FIG. 11
[8] = read-out: inhibition of binding of FITC-labeled NLX

## Oc1ccc2c3c1O[C@H]1[C@H](O)CC[C@@]4(O)[C@@H](C2)N(CC2CC2)CC[C@]314 [6-β-Naltrexol]
[1]; 1 µM
  Percent Inhibition: 50.5%
[1]; 10 µM
  Percent Inhibition: 64.8%

## Oc1ccc2c(c1)[C@@]13CCCC[C@@]1(O)[C@@H](C2)N(CC1CCC1)CC3 [Butorphanol]
kappa-opioid receptor
  RECEPTOR KAPPA: antagonism/agonism and relative potency: +++

## COc1c2c(cc3c1C(CC(=O)Cc1ccccc1F)[N+](C)(C)CC3)OCO2 (centres unmarked) [Compound B0055]
α7nAChR-FLNA complex
  α7nAChR-FLNA association: markedly reduced
ERK2
  Aβ42-induced ERK2 activation (pERK2): suppressed; also recorded: reduced the activation at both concentrations

## CN1CC[C@]23CCCC[C@H]2[C@H]1Cc1ccc(O)cc13 [Levorphanol]
[1]; read-out: Percent Inhibition
  inhibition at 1 µM: 46.8%
  inhibition at 10 µM: 69.4%

## Oc1ccc2c3c1O[C@H]1[C@@H](O)CC[C@@]4(O)[C@@H](C2)N(CC2CCC2)CC[C@]314 [Nalbuphine]
[1]
  binding to the FLNA pentapeptide of SEQ ID NO: 1 (in words): bind well
[1]; read-out: Percent Inhibition
  inhibition at 1 µM: 65.4%
  inhibition at 10 µM: 76.2%

## C=C1CC[C@@]2(O)[C@H]3Cc4ccc(O)c5c4[C@@]2(CCN3CC2CC2)[C@H]1O5 [Nalmefene]
[1]; read-out: Percent Inhibition
  inhibition at 1 µM: 44.5%
  inhibition at 10 µM: 66.9%

## C=CCN1CC[C@]23c4c5ccc(O)c4O[C@H]2[C@@H](O)C=C[C@H]3[C@H]1C5 [Nalorphine]
kappa-opioid receptor
  RECEPTOR KAPPA: antagonism/agonism and relative potency: +
[1]
  binding to the FLNA pentapeptide of SEQ ID NO: 1 (in words): bind well
[1]; read-out: Percent Inhibition
  inhibition at 1 µM: 58.7%
  inhibition at 10 µM: 60.2%

## C=CCN1CC[C@]23c4c5ccc(O)c4O[C@H]2/C(=N/NC(=O)c2ccccc2)CC[C@@]3(O)[C@H]1C5 [Naloxone Benzoylhydrazone]
delta-opioid receptor
  RECEPTOR DELTA: antagonism/agonism and relative potency: −
kappa-opioid receptor
  RECEPTOR KAPPA: antagonism/agonism and relative potency: −

## C=CCN1CC[C@]23c4c5ccc(O)c4O[C@H]2C(=O)CC[C@@]3(O)[C@H]1C5 [Naloxone]
[1]
  binding to the FLNA pentapeptide of SEQ ID NO: 1 (in words): bind well
[1]; 0.01 μM compound, 10 nM FITC-NLX, listed as (−)NLX
  Percent inhibition of FITC-NLX binding: 41.9% and 34.3% and 41.4% and 42.50%
[1]; 0.1 μM compound, 10 nM FITC-NLX, listed as (−)NLX
  Percent inhibition of FITC-NLX binding: 48.6% and 38.5% and 47.2% and 54.20%
[1]; 1 μM compound, 10 nM FITC-NLX, listed as (−)NLX
  Percent inhibition of FITC-NLX binding: 51.5% and 45.8% and 50.2% and 56.20%
[1]; [5]
  inhibition at 1 µM: 71.6%
[1]; 10 nM FITC-NLX
  inhibition at 0.01 µM: 43%
  inhibition at 0.1 µM: 50.3%
[1]; [6]
  inhibition at 1 µM: 53.9%
[1]; [7]
  inhibition at 1 µM: ~75%

## O=C1CC[C@@]2(O)[C@H]3Cc4ccc(O)c5c4[C@@]2(CCN3CC2CC2)[C@H]1O5 [Naltrexone]
FLNA [2]; read-out: IC50-H (high)
  IC50: 0.00163 nM
FLNA [2]; read-out: IC50-L (low)
  IC50: 18.8 nM
FLNA [2]; FITC-NLX label
  affinity difference between the high- and low-affinity binding sites: ~12.000 fold
[1]
  binding to the FLNA pentapeptide of SEQ ID NO: 1 (in words): bind well
[1]; 0.01 μM compound, 10 nM FITC-NLX, listed as NTX
  Percent inhibition of FITC-NLX binding: 37.9% and 34.8% and 38.5%
[1]; 0.1 μM compound, 10 nM FITC-NLX, listed as NTX
  Percent inhibition of FITC-NLX binding: 46.5% and 45.2% and 43.3%
[1]; 1 μM compound, 10 nM FITC-NLX, listed as NTX
  Percent inhibition of FITC-NLX binding: 55.4% and 51.6% and 48.0%
[1]; [5]
  inhibition at 1 µM: 76.4%
[1]; 10 nM FITC-NLX
  inhibition at 0.01 µM: 40.2%
  inhibition at 0.1 µM: 47.4%
[1]; [6]
  inhibition at 1 µM: 49.1%
[1]; [7]
  inhibition at 1 µM: ~75%
FLNA [3]; read-out: IC50-H (high affinity site)
  IC50: 0.00394 nM
FLNA [3]; read-out: IC50-L (lower affinity site)
  IC50: 0.834 nM
FLNA [4]; IC50-L (low)
  IC50: 0.834 nM
FLNA [4]; read-out: IC50-H (high)
  IC50: 0.00394 nM
FLNA [4]; [3H]NLX label
  affinity difference between the high- and low-affinity binding sites: about 200 fold

## CN1CC[C@]23c4c5ccc(O)c4O[C@H]2[C@@H](O)C=C[C@H]3[C@H]1C5 [morphine]
[1]
  binding to the FLNA pentapeptide of SEQ ID NO: 1 (in words): do not bind well
[1]; [8]
  inhibition at 10 µM: 25 to 50%

## Oc1ccc2c3c1O[C@H]1c4[nH]c5c(c4C[C@@]4(O)C(C2)N(CC2CC2)CC[C@]314)C[C@@]1(O)[C@H]2Cc3ccc(O)c4c3[C@@]1(CCN2CC1CC1)[C@H]5O4 [nor-Binaltrophimine]
delta-opioid receptor
  RECEPTOR DELTA: antagonism/agonism and relative potency: −

## COc1ccc2c3c1O[C@H]1C(=O)CC[C@@]4(O)[C@@H](C2)N(C)CC[C@]314 [oxycodone]
[1]
  binding to the FLNA pentapeptide of SEQ ID NO: 1 (in words): do not bind well
[1]; [8]
  inhibition at 10 µM: 25 to 50%

## COC(=O)/C=C/C(=O)N[C@@H]1CC[C@@]2(O)[C@H]3Cc4ccc(O)c5c4[C@@]2(CCN3CC2CC2)[C@H]1O5 [β-Funaltrexamine]
[1]; 1 µM
  Percent Inhibition: 49.8%
[1]; 10 µM
  Percent Inhibition: 69.4%

## (+)-naloxone [(+)NLX]
α7nAChR-FLNA complex
  α7nAChR-FLNA association: markedly reduced
Tau protein; FIG. 4D, timing not specified
  Aβ42-induced hyperphosphorylation of tau at all three sites: particularly decreased
Tau protein; simultaneous administration, both concentrations
  Aβ42-induced tau phosphorylation at S202, T231 and T181: reduced tau phosphorylation
ERK2
  Aβ42-induced ERK2 activation (pERK2): suppressed
ERK2; listed as (+)-naloxone
  Aβ42-induced ERK2 activation (pERK2): reduced the activation at both concentrations
